Source: patent US8318947B2, “Comestible compositions comprising high potency savory flavorants, and processes for producing them” (Senomyx, Inc., priority 2006, dated 2012)

How the values were obtained:
[1] = system: human panelists, savory taste; test: Savory taste test with trained human panel (difference from reference); assay type: in vivo; conditions: for Taste Data: cpd concentration at which 12 mM MSG + cpd is as strong as 12 mM MSG + 100 μM IMP: with 12 mM MSG, reference 12 mM MSG + 100 μM IMP
Procedure: General Panelist Selection: Basic screening of sensory taste testers: Potential panelists were tested for their abilities to rank and rate intensities of solutions representing the five basic tastes. Panelists ranked and rated intensity of five different concentrations of each of the five following compounds: sucrose (sweet), sodium chloride (salty), citric acid (sour), caffeine (bitter), and monosodium glutamate (savory). In order to be selected for participation in testing, panelists needed to correctly rank and rate samples for intensity, with a reasonable number of errors.
Preliminary Taste Tests: The panelists selected in the above procedure were deemed qualified for performing Preliminary Taste Testing procedures. The preliminary taste tests are used to evaluate new compounds for intensity of basic tastes and off-tastes. A small group of panelists (n=5) taste approximately 5 concentrations of the compound (range typically between 1-100 μM, in half-log cycles, e.g., 1, 3, 10, 30, and 100 μM) in water and in a solution of 12 mM MSG to evaluate enhancement. Panelists rate the five basic tastes (sweet, salty, sour, bitter, and savory) as well as off-tastes (such as chemical, metallic, sulfur) on a labeled magnitude scale. Samples are served in 10 mL portions at room temperature. The purpose of the test is to determine the highest concentration at which there is no objectionable off-taste, and determine if obvious savory taste or enhancement of savory taste exists at any of the concentrations tested.
Trained Panelist Selection: A trained expert panel was used to further evaluate compounds that had been tested with the preliminary taste test.
Panelists for the trained panel were selected from the larger group of qualifying taste panelists. Panelists were further trained on savory taste by ranking and rating experiments using MSG and IMP combinations. Panelists completed a series of ranking, rating, and difference from reference tests with savory solutions. In ranking and rating experiments, panelists evaluated easy MSG concentrations (0, 6, 18, 36 mM) and more difficult MSG concentrations (3, 6, 12, 18 mM MSG) in water.
Compound testing with Trained Panel: Compounds tested by the trained panel were evaluated in difference from reference experiments. […] Test samples were solutions with varying amounts of MSG, IMP, and the compound. Typically, each session compares the reference sample to numerous test samples. […] Compounds were tested against the reference in samples with and without 12 mM MSG. All samples were presented in 10 ml volumes at room temperature. Two sessions were completed for each compound tested to evaluate panel reproducibility.

external tasters = test: Cajun BBQ potato chips focus group taste test; assay type: in vivo, human; conditions: chips with 3 ppm compound; eleven panelists
Procedure: Two solid savory flavor concentrate compositions were prepared by spray drying procedures equivalent to those reported in Example 35. One savory flavor concentrate sample, comprising 0.01% (wt/wt) of the compound of Example 1 was prepared via from the compound of Example 1, Neobee M-5 medium chain triglycerides, N-Lok 1930 modified food starch, and maltodextrin. Another savory flavor concentrate sample, comprising 0.01% (wt/wt) of the compound of Example 24 was similarly prepared via from the compound of Example 24, Neobee M-5 medium chain triglycerides, N-Lok 1930 modified food starch, and maltodextrin. A basic dry seasoning mix for providing Cajun flavor for the chips was prepared by dry blending the ingredients in Table 38-1 using a […] blender for 5 minutes at 40-80 rpms using a wire whip attachment. Kettle® Unsalted potato chips were hand broken into reasonably uniform 1⁄2''×1⁄2'' pieces and placed in a polyethylene 26.7 cm×27.9 cm non-vented food bag. The chips were then heated in an Amana Commercial 1200 watt microwave for 20 seconds to release oils, and so the seasoning would adhere to the chips. […] The panelists evaluated the four sample types of Cajun BBQ chips in a Focus Group taste test procedure and were instructed to write comments on several attributes: sweet, BBQ, Cajun spice, pepper, onion, salt, potato, umami, off tastes, other, and liking or disliking. […]

Row | SMILES | Taste Data: cpd concentration at which 12 mM MSG + cpd is as strong as 12 mM MSG + 100 μM IMP [1] | Panelists reporting higher intensity of Cajun spice and pepper flavors (external tasters) | Taste Data: cpd concentration as strong as 12 mM MSG ([1]; compound alone, without MSG)
1 | CCCC(CCC)NC(=O)c1ccc2c(c1)OCO2 [Example 1, N-(heptan-4-yl)benzo[d][1,3]dioxole-5-carboxamide] | 12 mM MSG + 3 μM cpd as | 9/11 | –
2 | COc1ccc(CNC(=O)C(=O)NCCc2ccccn2)c(OC)c1 [Example 24, N-(2,4-Dimethoxy-benzyl)-N′-(2-pyridin-2-yl-ethyl)-oxalamide] | 12 mM MSG + 1 μM cpd as | 9/11 | 1 μM cpd as strong as
